Measurements reported in patent US9061994B1, “Materials and methods useful to induce vacuolization, cell death, or a combination thereof” (The University of Toledo, priority 2011, dated 2015).
Entries after “also recorded” stand apart in the source; their conditions may differ. Like-named read-outs stand apart in the source and are kept apart here.

Legend:
[1] = test system: U251 glioblastoma cells; assay: ATP level (CellTiter Glo); assay type: cell-based, human; conditions: second day after addition of MIPP (FIG. 13)
Text: To compare the levels of ATP in MIPP-treated glioblastoma cells versus controls treated with an equivalent volume of DMSO, the cells were harvested by trypsinization and assayed using the CellTiter Glo kit from Promega according to the manufacturer's instructions.

[2] = test system: U251 glioblastoma cells; assay: Colony-forming assay; assay type: cell-based, human; conditions: cells treated for 2 days (FIGS. 15, 40)
[3] = test system: U251-TR cells; assay: Colony-forming assay, temozolomide-resistant cells; assay type: cell-based, human; conditions: 10 μM MIPP, 2 days (FIG. 21)
Experimental: (§1) For colony-forming assays, cells were plated in 100 mm dishes at 2,500 (U251 and U251-TR) or 1,500 (all other cell lines) cells per dish. Beginning on the day after plating, the cells were exposed to 10 μM MIPP for 2 days, with the medium and drug replenished after 1 day. The cells were fed fresh medium without drug every 2 to 3 d for a period of 10-21 days. To visualize the colonies, the dishes were washed with PBS, fixed for 10 min with ice-cold 100% methanol, and stained with 1% crystal violet in 35% methanol. After 2-3 washes with water, colonies containing at least 50 cells were counted using a dissecting microscope or a Protocol 2 colony counter.

[4] = test system: active Arf6; assay: Pull-down assay for activated Arf6; assay type: cell-based, human; conditions: U251; 10 μM MIPP; 4 h or 24 h
Experimental: (§2) Assays for activated Rac1 and Arf6 were performed using EZ-Detect Rac1 or Arf6 activation kits. These assays employ either a GST-fusion protein containing the p21-binding domain of p21-activated protein kinase 1 (PAK1) to selectively bind active Rac1 in whole cell lysates, or GST-GGA3 (Golgi-associated gamma adaptin ear-containing Arf binding protein 3) to pull down active Arf6. The active Rac1 or Arf6 collected on the glutathione beads were subjected to western blot analysis and the chemiluminescence signals were quantified using Alpha Innotech FluorChem HD2 imaging system. The values for active protein in each sample were normalized to α-tubulin. Results were expressed as either the total active Rac1 or Arf6, or the ratio of the active GTPase to the total Rac1 or Arf6 measured in aliquots of the cell lysate.

[5] = MTT cell viability assay, mammary epithelial cells; assay type: cell-based; conditions: human, MCF-10A mammary epithelial cells, 10 μM MIPP (FIG. 27), read-out: reduction in cell viability
[6] = test system: active Rab5; assay: Pull-down assay for active Rab5; assay type: cell-based, human; conditions: U251; 10 μM; 4 h and 24 h
Experimental: (§3) GST-fusion proteins were produced in E. coli BL21 (DE3) pLysS and the fusion proteins were bound to glutathione-sepharose 4B beads. Pull-down assays for active Rab5 using the GST-Rabaptin-5 beads were performed. Assays for active Rab7 were performed. For each determination cell lysates were prepared from ten pooled 10 cm cultures. Monoclonal antibodies against Rab5 or Rab7 were used to probe western blots of the proteins collected on the beads. Results were quantified and normalized as described above for Rac1 and Arf6.

[7] = test system: U251 glioblastoma cells; assay: Cell morphology / vacuolization by phase-contrast microscopy; assay type: cell-based, human
[8] = test system: LN229, U2OS, MCF7, SW480 and PANC-1 cancer cell lines; assay: Colony-forming assay, other cancer cell lines; assay type: cell-based, human; conditions: exposure for 2 days (FIG. 28)
Experimental: as §1
Also disclosed herein is an analysis of the effects of the compound in several other cell lines. These include an additional glioma cell line (LN229), osteosarcoma cells (U2OS), and breast (MCF7), colon (SW480) and pancreatic (PANC-1) carcinoma cells. Similar to the results with U251 cells, 10 μM MIPP induced dramatic cytoplasmic vacuolization in all of the cell lines, as shown in FIG. 26.

[9] = test system: active Rac1; assay: Pull-down assay for activated Rac1; assay type: cell-based, human; conditions: U251; 10 μM MIPP; 4 h or 24 h
Experimental: as §2

[10] = test system: U251 glioblastoma cells; assay: MTT cell viability assay; assay type: cell-based, human; conditions: for IC50: Homo sapiens, U-251, 48 h
[11] = test system: LN229, U2OS, MCF7, SW480 and PANC-1 cancer cell lines; assay: MTT cell viability assay, other cancer cell lines; assay type: cell-based; conditions: Homo sapiens; 10 μM MIPP; all of the cancer cell lines (FIG. 27); read-out: reduction of relative cell viability
[12] = MTT cell viability assay, normal fibroblasts; assay type: cell-based; conditions: human, normal skin fibroblasts, 10 μM MIPP (FIG. 27), read-out: reduction in cell viability
[13] = test system: temozolomide-resistant U251 cells (U251-TR); assay: MTT cell viability assay, temozolomide-resistant cells; assay type: cell-based, human
[14] = test system: active Rab7; assay: Pull-down assay for active Rab7; assay type: cell-based, human; conditions: U251; 10 μM; up to 24 h
Experimental: as §3

Cc1[nH]c2ccccc2c1C=CC(=O)c1ccncc1 [MIPP, 3-(2-methyl-1H-indol-3-yl)-1-(4-pyridinyl)-2-propen-1-one]
ATP level [1]: significant decrease in ATP
colony formation [2]: non-viable in colony-forming assays; also recorded: reduced colony formation
survival (colony formation) [3]: significant decline in survival
amount of active Arf6 [4]: no significant effects
cytotoxicity at 10 μM [5]: 30%
amount of active Rab5 [6]: striking decline in the amount of active Rab5
cell morphology / vacuolization ([7]; 1 μM): behaved similarly to Compound I when tested at 1 μM
cell morphology / vacuolization ([7]; 10 μM): induced vacuoles that were larger and more numerous than those induced by Compound I
long-term cell survival (colony formation) [8]: significantly reduced long-term cell survival in all cases
amount of active Rac1 [9]: no significant effects
IC50 ([10]; U251, two days, medium and compound replenished after the first day (FIG. 37D), read-out: IC50 (cell viability)): 4.8 µM
IC50 ([10]; parental U251, MTT dose-response over a 2-day period (FIG. 20), read-out: IC50, parental cells): 3.5 µM
relative cell viability, in words ([10]; U251, 10 μM, first two days of treatment (FIG. 12)): marked decrease in the relative cell viability
cytotoxicity at 10 μM [11]: 50 to 90%
cytotoxicity at 10 μM [12]: 40%
methuosis and cell viability in TMZ-resistant cells, in words ([13]; FIGS. 41A-41B): induced methuosis and reduced cell viability in the TMZ-resistant cells
IC50 ([13]; Homo sapiens, U-251, 48 h, U251-TR, MTT dose-response over a 2-day period (FIG. 20)): 6 µM
amount / activation state of active Rab7 [14]: more than doubling by 24 h
